pEC50: −log10 of the molar value.
Assays:
BTK [1] = biological target: T1, BTK (Homo sapiens (Human), UniProt Q06187); assay: Mass spectrometry for BTK (covalent modification of intact protein); format: binding; conditions: 1 hr, 10x fold excess of compound
Method: Intact BTK was incubated for 1 hr at a 10× fold excess of I-7 to protein. Aliquots (2 μl) of the samples were diluted with 10 μl of 0.1% TFA prior to micro C4 ZipTipping directly onto the MALDI target using Sinapinic acid as the desorption matrix (10 mg/ml in 0.1% TFA:Acetonitrile 20:80).

Human naïve B cells = assay: Human primary B cell proliferation assay; format: cell-based; conditions: 5 μg/ml α-IgM 72 hours, 3H-thymidine incorporation
Method: Human naïve B cells were purified from 100 mL whole blood using a MACS purification kit designed to isolate CD19+, IgD+ cells by negative selection. Purified naïve B cells were resuspended in RPMI complete and stimulated with 5 μg/ml α-IgM for 72 hours. ^3H-Thymidine was included in the culture media for the final 16 h, cells were harvested and ^3H incorporation measured. Inhibition of B cell proliferation correlates with inhibition of BTK substrate phosphorylation after α-IgM stimulation.

BTK [2] = biological target: T1, BTK; assay: Washout experiment with I-7 and probe compound I-215 in Ramos cells; format: cell-based; conditions: 0.1 μM, 1 hour
Method: Ramos cells were incubated with 0.1 μM I-7 or a reversible BTK inhibitor control compound in serum free media for 1 hour at 37° C. The cells were then washed in compound-free media and lysed 0, 4, 6, or 8 hours after compound removal. Cell lysates were incubated with 1 μM I-215 for 1 hour at room temperature, then overnight at 4° C. with streptavidin-coupled agarose beads. Protein was boiled off the beads and BTK association was assessed by western blot. […] In contrast, with the reversible inhibitor control, 45% of BTK protein is unbound and available to the probe at 0 hours and by 4 hours 100% of BTK protein is unbound and available to bind the probe. All samples were normalized to the DMSO-treated cells harvested at 0 hours.

T1 sequence (Q06187 whole entry): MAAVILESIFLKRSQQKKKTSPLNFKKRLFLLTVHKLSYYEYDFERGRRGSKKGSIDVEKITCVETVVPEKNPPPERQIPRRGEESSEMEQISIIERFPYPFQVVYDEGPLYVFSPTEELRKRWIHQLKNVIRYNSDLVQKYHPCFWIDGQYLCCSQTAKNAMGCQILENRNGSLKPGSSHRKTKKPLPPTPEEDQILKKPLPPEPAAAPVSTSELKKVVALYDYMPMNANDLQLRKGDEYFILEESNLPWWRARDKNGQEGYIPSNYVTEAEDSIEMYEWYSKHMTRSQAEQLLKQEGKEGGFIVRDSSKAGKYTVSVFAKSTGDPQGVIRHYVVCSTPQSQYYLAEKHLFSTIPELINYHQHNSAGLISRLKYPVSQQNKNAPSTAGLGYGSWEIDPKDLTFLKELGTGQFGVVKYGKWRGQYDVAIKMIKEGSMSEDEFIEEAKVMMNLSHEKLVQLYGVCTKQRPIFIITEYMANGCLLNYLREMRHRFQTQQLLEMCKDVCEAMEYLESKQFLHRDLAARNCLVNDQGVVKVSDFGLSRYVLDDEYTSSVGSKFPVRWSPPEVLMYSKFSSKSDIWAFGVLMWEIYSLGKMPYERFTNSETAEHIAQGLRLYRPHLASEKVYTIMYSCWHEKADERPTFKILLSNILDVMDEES

## C=CC(=O)Nc1cccc(Nc2nc(Nc3ccccc3)ncc2C)c1 [Compound I-7, N-(3-(5-methyl-2-(phenylamino)pyrimidin-4-ylamino)phenyl)acrylamide]
BTK [1]
  covalent modification of BTK by mass spectrometry: complete modification
Human naïve B cells
  pEC50: 8.00 to 9.00
BTK [2]
  time BTK protein remains occupied after compound removal: over 8 hours

Source: US10596172B2 (Celgene CAR LLC, priority 2008, dated 2020)
